Entries after “also recorded” stand apart in the source; their conditions may differ.
What was measured:
α7 nAChRs = settings: cited from earlier work
[1] = biological target: α7 nAChRs in the monkey brain (Macaca mulatta, UniProt Q866A2); type: in vivo; settings: monkey SPECT, pretreatment SSR180711 5.0 mg/kg i.v.
Protocol: Four monkeys (male, 7 year olds, 8 kg) were selected for SPECT imaging. Immediately after HPLC column purification, 50 µg (74 MBq) of the ^131I-CHIBA-1001 in 2 mL of normal saline were injected into the monkeys via intravenous administration after administration of saline (control) or SSR180711 (5.0 mg/kg, i.v.). […] At 0.5, 1.5, and 2 h after injection, imaging was performed in the Department of Nuclear Medicine, Peking University First Hospital, using SPECT (SPR SPECT; GE Healthcare, Inc.) equipped with a high-energy general purpose (HEGP) collimator. Static images (200,000 counts), obtained with a zoom factor of 2.0, were digitally stored in a 64 × 64 matrix.

[2] = biological target: T1, α7 nAChRs in the rat brain (Rattus norvegicus, UniProt Q05941); assay: In vitro saturation binding assay of ^125I-CHIBA-1001 in rat brain membranes; settings: 4°C, n = 5, mean ± S.E.M.
T1 construct: aliquots of a membrane suspension (200 µl), ^125I-CHIBA-1001 and the indicated concentrations of test drug; from tissue; host or cells: rat brain membranes (Sprague Dawley)
T1 sequence (Q05941 23-502): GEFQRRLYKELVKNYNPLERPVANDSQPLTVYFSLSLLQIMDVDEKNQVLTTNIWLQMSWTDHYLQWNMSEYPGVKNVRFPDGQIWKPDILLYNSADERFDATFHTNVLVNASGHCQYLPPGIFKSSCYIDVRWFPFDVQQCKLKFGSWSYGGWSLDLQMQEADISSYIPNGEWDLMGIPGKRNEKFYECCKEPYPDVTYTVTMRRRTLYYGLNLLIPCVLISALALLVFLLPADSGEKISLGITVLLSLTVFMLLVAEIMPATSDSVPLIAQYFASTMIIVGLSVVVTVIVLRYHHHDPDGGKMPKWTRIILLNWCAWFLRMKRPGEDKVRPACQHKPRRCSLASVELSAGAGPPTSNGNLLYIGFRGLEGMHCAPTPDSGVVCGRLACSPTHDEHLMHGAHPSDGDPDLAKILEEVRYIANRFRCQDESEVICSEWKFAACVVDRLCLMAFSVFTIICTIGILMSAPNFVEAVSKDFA
Protocol: Male SD (Sprague Dawley) rats (8–10 week olds, 180–200 g) were used for the experiments. After sacrificing the rats by decapitation, the brains were rapidly removed from the skulls.
The tissues of each brain region were homogenized in 15 volumes of 50 mM Tris–HCl buffer (120 mM NaCl, 2 mM KCl, 1 mM CaCl2, 1 mM MgCl 2, pH 7.4 at 4°C) using a Polytron homogenizer at setting No. 5 for 30s on ice. The membranes were centrifuged in 50 ml polypropylene tube at 48,000 g for 20 min at 4°C. The supernatant was discarded and the pellet re-suspended, homogenized and centrifuged as above. The membrane pellet was washed and re-suspended in ice-cold buffer and was then centrifuged two more times. The final pellet was re-suspended in 10 volumes of the same buffer.
Assays of the binding of ^125I-CHIBA-1001 to α7 nAChRs in the rat brain were performed according to the method published previously [21], [22]. The reaction mixtures were consisted of aliquots of a membrane suspension (200 µl), ^125I-CHIBA-1001 and the indicated concentrations of test drug in a final volume of 0.5 ml in duplicate. Non-specific binding was estimated in the presence of 30 µM SSR180711. Binding reaction was conducted for 150 min at 4°C for the equilibrium saturation and inhibition studies.

[3] = blocked cerebellum as nonspecific binding

α7 nAChRs in the monkey brain, sequence (Q866A2 23-502): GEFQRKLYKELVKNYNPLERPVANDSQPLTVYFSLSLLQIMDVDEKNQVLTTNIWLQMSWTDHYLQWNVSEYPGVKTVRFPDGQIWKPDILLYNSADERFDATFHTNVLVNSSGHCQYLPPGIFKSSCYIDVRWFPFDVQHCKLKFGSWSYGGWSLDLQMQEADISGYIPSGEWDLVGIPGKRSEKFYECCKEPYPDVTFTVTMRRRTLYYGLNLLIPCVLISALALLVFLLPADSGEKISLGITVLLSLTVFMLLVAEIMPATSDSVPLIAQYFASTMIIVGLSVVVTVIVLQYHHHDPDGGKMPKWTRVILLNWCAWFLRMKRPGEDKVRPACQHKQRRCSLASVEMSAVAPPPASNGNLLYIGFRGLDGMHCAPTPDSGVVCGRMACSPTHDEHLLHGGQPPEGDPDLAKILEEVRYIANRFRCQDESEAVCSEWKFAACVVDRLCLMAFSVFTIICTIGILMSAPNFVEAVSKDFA

[^125I]methyllycaconitine [^125I-MLA]
Kd (α7 nAChRs): 1.8 nM

O=C(Oc1ccc(Br)cc1)N1CCN2CCC1CC2 [SSR180711]
blockade of ^131I-CHIBA-1001 uptake in the cerebellum [1]: minimal | effect of pretreatment on uptake of ^131I-CHIBA-1001 radioactivity in the brain [1]: blocked the radioactive uptake in the brain successfully; also recorded: decreased | decrease of specific binding of ^131I-CHIBA-1001 in the frontal cortex [1, 3]: 38.5±2.1% | decrease of specific binding of ^131I-CHIBA-1001 in the thalamus [1, 3]: 35.7±2.8%

O=C(Oc1ccc(I)cc1)N1CCN2CCC1CC2 [^125I-CHIBA-1001]
Kd ([2]; read-out: apparent Kd): 81.9 ± 7.95 nM

O=C(Oc1ccc([125I])cc1)N1CCN2CCC1CC2 [^125I-CHIBA-1001]
B max [2]: 63.97±17.45 fmol/mg protein
